{"source": "ChEMBL document CHEMBL5346933", "about": "“Design and synthesis of novel arylurea derivatives of aryloxy(1-phenylpropyl) alicyclic diamines with antimicrobial activity against multidrug-resistant Gram-positive bacteria” (Eur J Med Chem, 2023)", "key": {"Streptococcus pneumoniae [1]": {"system": "Streptococcus pneumoniae", "experiment": "Antibacterial activity against Streptococcus pneumoniae ATCC 49619 assessed as inhibition of bacterial growth incubated for 18 hrs by broth microdilution method", "type": "functional"}, "Staphylococcus aureus [2]": {"system": "Staphylococcus aureus", "experiment": "Antibacterial activity against methicillin-resistant Staphylococcus aureus clinical strain 19449 assessed as inhibition of bacterial growth incubated for 18 hrs by broth microdilution method", "type": "functional"}, "Staphylococcus aureus [3]": {"system": "Staphylococcus aureus", "experiment": "Antibacterial activity against vancomycin-intermediate Staphylococcus aureus ATCC 700699 assessed as inhibition of bacterial growth incubated for 18 hrs by broth microdilution method", "type": "functional"}, "[4]": {"system": "Staphylococcus epidermidis", "experiment": "Antibacterial activity against linezolid-resistant Staphylococcus epidermidis NIL 4399/19 assessed as inhibition of bacterial growth incubated for 18 hrs by broth microdilution method", "type": "functional"}, "Staphylococcus aureus [5]": {"system": "Staphylococcus aureus", "experiment": "Antibacterial activity against biofilm producer Staphylococcus aureus RN450 assessed as inhibition of bacterial growth incubated for 18 hrs by broth microdilution method", "type": "functional"}, "Enterococcus faecium": {"system": "Enterococcus faecium", "experiment": "Antibacterial activity against vancomycin-resistant Enterococcus faecium assessed as inhibition of bacterial growth incubated for 18 hrs by broth microdilution method", "type": "functional"}, "[6]": {"experiment": "Cytotoxicity against human BJ cells assessed as cell viability at 25 ug/ml incubated for 24 hrs by MTT assay", "type": "toxicity, cell-based", "settings": "at 25 µg/mL, read-out: Activity"}, "Streptococcus pneumoniae [7]": {"system": "Streptococcus pneumoniae", "experiment": "Antibacterial activity against macrolides-lincosamides and streptogramins B-resistant Streptococcus pneumoniae O/19/4199 assessed as inhibition of bacterial growth incubated for 18 hrs by broth microdilution method", "type": "functional"}, "Staphylococcus aureus [8]": {"system": "Staphylococcus aureus", "experiment": "Bactericidal activity against methicillin-susceptible Staphylococcus aureus ATCC 25923 assessed as reduction in colony forming units incubated for 18 hrs in broth followed by culturing on agar plate for 24 hrs", "type": "functional", "settings": "time 42 hrs, read-out: MBC99.9"}, "Staphylococcus aureus [9]": {"system": "Staphylococcus aureus", "experiment": "Bactericidal activity against methicillin-resistant Staphylococcus aureus clinical strain 19449 assessed as reduction in colony forming units incubated for 18 hrs in broth followed by culturing on agar plate for 24 hrs", "type": "functional", "settings": "time 42 hrs, read-out: MBC99.9"}, "Staphylococcus aureus [10]": {"system": "Staphylococcus aureus", "experiment": "Ratio of MBC to MIC for methicillin-susceptible Staphylococcus aureus ATCC 25923", "type": "functional"}, "[11]": {"system": "Staphylococcus epidermidis", "experiment": "Ratio of MBC to MIC for methicillin-susceptible Staphylococcus epidermidis ATCC 12228", "type": "functional"}, "[12]": {"system": "Staphylococcus epidermidis", "experiment": "Ratio of MBC to MIC for linezolid-resistant Staphylococcus epidermidis NIL 4399/19", "type": "functional"}, "Enterococcus faecalis": {"system": "Enterococcus faecalis", "experiment": "Ratio of MBC to MIC for Enterococcus faecalis ATCC 29212", "type": "functional"}, "Staphylococcus aureus [13]": {"system": "Staphylococcus aureus", "experiment": "Bactericidal activity against vancomycin-intermediate Staphylococcus aureus ATCC 700699 assessed as log reduction of bacterial colony forming units at 4 times MIC incubated for 20 hrs in broth followed by culturing on agar plate for 24 hrs by time-killing assay", "type": "functional", "settings": "time 44 hrs"}, "[14]": {"experiment": "Metabolic stability in rat liver microsomes assessed as parent compound remaining at 0.4 mg/ml preincubated for 10 mins followed by NADPH-regenerating system addition for 60 mins by UPLC-MS analysis", "type": "ADME, Microsome", "settings": "time 70 min, read-out: Stability"}, "[15]": {"experiment": "Intrinsic clearance in rat liver microsomes at 0.4 mg/ml preincubated for 10 mins followed by NADPH-regenerating system addition for 60 mins and measured per mg of protein by UPLC-MS analysis", "type": "ADME, Microsome", "settings": "time 70 min, read-out: CLH"}, "Cell membrane [16]": {"system": "Cell membrane", "experiment": "Induction of cell membrane depolarization in Staphylococcus aureus Newman assessed as bacterial cells with polarized membrane potential at MIC incubated for 25 to 30 mins by DiOC2(3) probe based flow cytometry (reference value: 94.3%)", "type": "subcellular", "settings": "time 25-30 min"}, "Cell membrane [17]": {"system": "Cell membrane", "experiment": "Induction of cell membrane depolarization in Staphylococcus aureus Newman assessed as bacterial cells with depolarized membrane potential at MIC incubated for 25 to 30 mins by DiOC2(3) probe based flow cytometry (reference value: 1.6%)", "type": "subcellular", "settings": "time 25-30 min"}, "Cell membrane [18]": {"system": "Cell membrane", "experiment": "Induction of cell membrane depolarization in methicillin-resistant Staphylococcus aureus 19449 assessed as bacterial cells with polarized membrane potential at MIC incubated for 25 to 30 mins by DiOC2(3) probe based flow cytometry (reference value: 98.8%)", "type": "subcellular", "settings": "time 25-30 min"}, "Cell membrane [19]": {"system": "Cell membrane", "experiment": "Induction of cell membrane depolarization in methicillin-resistant Staphylococcus aureus 19449 assessed as bacterial cells with polarized membrane potential at 2XMIC incubated for 25 to 30 mins by DiOC2(3) probe based flow cytometry (reference value: 98.8%)", "type": "subcellular", "settings": "time 25-30 min"}, "Cell membrane [20]": {"system": "Cell membrane", "experiment": "Induction of cell membrane depolarization in methicillin-resistant Staphylococcus aureus 19449 assessed as bacterial cells with depolarized membrane potential at 2XMIC incubated for 25 to 30 mins by DiOC2(3) probe based flow cytometry (reference value: 0.7%)", "type": "subcellular", "settings": "time 25-30 min"}, "Cell membrane [21]": {"system": "Cell membrane", "experiment": "Induction of cell membrane depolarization in vancomycin-resistant Enterococcus faecium clinical strain assessed as bacterial cells with polarized membrane potential at MIC incubated for 25 to 30 mins by DiOC2(3) probe based flow cytometry (reference value: 96.8%)", "type": "subcellular", "settings": "time 25-30 min"}, "Cell membrane [22]": {"system": "Cell membrane", "experiment": "Induction of cell membrane depolarization in vancomycin-resistant Enterococcus faecium clinical strain assessed as bacterial cells with depolarized membrane potential at MIC incubated for 25 to 30 mins by DiOC2(3) probe based flow cytometry (reference value: 0.8%)", "type": "subcellular", "settings": "time 25-30 min"}, "Cell membrane [23]": {"system": "Cell membrane", "experiment": "Induction of cell membrane depolarization in vancomycin-resistant Enterococcus faecium clinical strain assessed as bacterial cells with depolarized membrane potential at 2XMIC incubated for 25 to 30 mins by DiOC2(3) probe based flow cytometry (reference value: 0.8%)", "type": "subcellular", "settings": "time 25-30 min"}, "Cell membrane [24]": {"system": "Cell membrane", "experiment": "Induction of cell membrane depolarization in vancomycin-resistant Enterococcus faecium clinical strain assessed as bacterial cells with polarized membrane potential at 4 times MIC incubated for 25 to 30 mins by DiOC2(3) probe based flow cytometry (reference value: 96.8%)", "type": "subcellular", "settings": "time 25-30 min"}, "Cell membrane [25]": {"system": "Cell membrane", "experiment": "Induction of cell membrane depolarization in vancomycin-resistant Enterococcus faecium clinical strain assessed as bacterial cells with depolarized membrane potential at 4 times MIC incubated for 25 to 30 mins by DiOC2(3) probe based flow cytometry (reference value: 0.8%)", "type": "subcellular", "settings": "time 25-30 min"}, "Cell membrane [26]": {"system": "Cell membrane", "experiment": "Induction of cell membrane depolarization in Staphylococcus aureus Newman assessed as ratio of red to green fluorescence intensity at MIC incubated for 25 to 30 mins by DiOC2(3) probe based flow cytometry", "type": "subcellular", "settings": "time 25-30 min"}, "Cell membrane [27]": {"system": "Cell membrane", "experiment": "Induction of cell membrane depolarization in vancomycin-resistant Enterococcus faecium clinical strain assessed as ratio of red to green fluorescence intensity at MIC incubated for 25 to 30 mins by DiOC2(3) probe based flow cytometry", "type": "subcellular", "settings": "time 25-30 min"}}, "data": [{"smiles": "O=C(Nc1cccc(Cl)c1)NC1CCN(CCC(Oc2cccc(C(F)(F)F)c2)c2ccccc2)CC1", "note": "(racemic)", "values": [{"measurement": "MIC", "setting": "Streptococcus pneumoniae [1]", "value": 6.25, "unit": "µg/mL"}, {"measurement": "MIC", "setting": "Staphylococcus aureus [2]", "value": 0.78, "unit": "µg/mL"}, {"measurement": "MIC", "setting": "Staphylococcus aureus [3]", "value": 3.12, "unit": "µg/mL"}, {"measurement": "MIC", "setting": "[4]", "value": 3.12, "unit": "µg/mL"}, {"measurement": "MIC", "setting": "Staphylococcus aureus [5]", "value": 1.56, "unit": "µg/mL"}, {"measurement": "MIC", "setting": "Enterococcus faecium", "value": 1.56, "unit": "µg/mL"}, {"measurement": "viability at 24 h, 25 ug/ml", "setting": "[6]", "value": 97, "unit": "%"}, {"measurement": "MIC", "setting": "Streptococcus pneumoniae [7]", "value": 6.25, "unit": "µg/mL"}, {"measurement": "MBC", "setting": "Staphylococcus aureus [8]", "value": 12.5, "unit": "µg/mL"}, {"measurement": "MBC", "setting": "Staphylococcus aureus [9]", "value": 3.12, "unit": "µg/mL"}, {"measurement": "Ratio", "setting": "Staphylococcus aureus [10]", "value": 4}, {"measurement": "Ratio", "setting": "[11]", "value": 1}, {"measurement": "Ratio", "setting": "[12]", "value": 2}, {"measurement": "Ratio", "setting": "Enterococcus faecalis", "value": 4}, {"measurement": "Activity", "setting": "Staphylococcus aureus [13]", "value": ">=3 log10CFU/ml"}, {"measurement": "remaining at 1 h", "setting": "[14]", "value": 95, "unit": "%"}, {"measurement": "microsomal CLint", "setting": "[15]", "value": 8.94, "unit": "µL/min/mg"}, {"measurement": "Activity", "setting": "Cell membrane [16]", "value": 0.6, "unit": "%"}, {"measurement": "Activity", "setting": "Cell membrane [17]", "value": 89, "unit": "%"}, {"measurement": "Activity", "setting": "Cell membrane [18]", "value": 6, "unit": "%"}, {"measurement": "Activity", "setting": "Cell membrane [19]", "value": 0.1, "unit": "%"}, {"measurement": "Activity", "setting": "Cell membrane [20]", "value": 96.8, "unit": "%"}, {"measurement": "Activity", "setting": "Cell membrane [21]", "value": 59.3, "unit": "%"}, {"measurement": "Activity", "setting": "Cell membrane [22]", "value": 34.8, "unit": "%"}, {"measurement": "Activity", "setting": "Cell membrane [23]", "value": 92.7, "unit": "%"}, {"measurement": "Activity", "setting": "Cell membrane [24]", "value": 1.5, "unit": "%"}, {"measurement": "Activity", "setting": "Cell membrane [25]", "value": 89.3, "unit": "%"}, {"measurement": "Ratio", "setting": "Cell membrane [26]", "value": 0.27}, {"measurement": "Ratio", "setting": "Cell membrane [27]", "value": 0.2}]}]}
